In US11034692B1 (Genentech, Inc., priority 2017, dated 2021):
Read-outs that look alike come from different tables or passages of the source.

How the values were obtained:
HPK1 [1] = molecular target: HPK1 (Homo sapiens, UniProt Q92918); experiment: HPK1 Lantha Binding Assay ("Lanth")
Procedure, shortened: (§1)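 Compounds in an 11-point 5-fold series were preincubated 1 h at 23 C with 2 nM kinase plus 2 nM Eu-anti-GST antibody. Then 15 nM Tracer222 was added for another hour, and time-resolved FRET was read at 665/615 nm. Ki values come from a Morrison tight-binding model that uses the tracer Kd.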

HPK1 [2] = experiment: HPK1 Lantha Binding Assay ("Lanth"); conditions: Table B1-1, read-out: HPK1 Ki (μM) (Lanth)
Procedure, shortened: as §1

[3] = Table B1-1, read-out: HPK1 Ki (μM) (Lanth)

Sequence of HPK1 (Homo sapiens, UniProt Q92918) (Q92918 whole entry, looked up): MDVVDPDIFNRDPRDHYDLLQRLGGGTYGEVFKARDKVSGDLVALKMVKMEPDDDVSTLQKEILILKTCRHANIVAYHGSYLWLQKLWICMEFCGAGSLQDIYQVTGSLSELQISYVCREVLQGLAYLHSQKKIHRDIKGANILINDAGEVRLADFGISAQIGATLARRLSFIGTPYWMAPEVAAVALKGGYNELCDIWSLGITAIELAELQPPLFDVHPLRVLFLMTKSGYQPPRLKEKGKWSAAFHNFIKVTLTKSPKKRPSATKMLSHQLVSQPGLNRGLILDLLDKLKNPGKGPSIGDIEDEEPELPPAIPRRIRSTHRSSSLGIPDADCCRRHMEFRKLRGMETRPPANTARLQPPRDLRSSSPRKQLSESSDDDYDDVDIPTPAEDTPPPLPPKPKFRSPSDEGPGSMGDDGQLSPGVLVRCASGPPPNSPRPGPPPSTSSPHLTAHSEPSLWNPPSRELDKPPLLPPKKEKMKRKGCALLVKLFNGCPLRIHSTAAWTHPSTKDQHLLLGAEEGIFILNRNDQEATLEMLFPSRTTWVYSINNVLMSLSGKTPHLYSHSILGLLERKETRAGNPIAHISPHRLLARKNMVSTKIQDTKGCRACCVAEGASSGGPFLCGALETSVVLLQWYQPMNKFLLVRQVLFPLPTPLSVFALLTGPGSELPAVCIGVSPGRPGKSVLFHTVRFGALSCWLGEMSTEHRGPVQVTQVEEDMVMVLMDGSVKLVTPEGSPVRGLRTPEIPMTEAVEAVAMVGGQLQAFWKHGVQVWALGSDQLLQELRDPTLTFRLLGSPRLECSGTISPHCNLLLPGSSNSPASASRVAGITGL

Row | SMILES | Ki (HPK1 [2]) | other results
1 | Cc1cc2[nH]c(=O)oc2cc1-c1cc2cc(NC(=O)[C@@H]3C[C@H]3c3cn[nH]c3)ncc2c(N)n1 (racemic) [Compound 144, (±)-trans-N-[8-amino-6-(5-methyl-2-oxo-3H-1,3-benzoxazol-6-yl)-2,7-naphthyridin-3-yl]-2-(1H-pyrazol-4-yl)cyclopropanecarboxamide] |  | Ki (HPK1 [1]; [3]): 0.0011 µM
2 | CNC(=O)c1cc(C)c(-c2cc3cc(NC(=O)[C@H]4C[C@@H]4c4cnn(C)c4)ncc3c(N)n2)cn1 (racemic) [Compound 346, (±)-5-(1-amino-6-((trans)-2-(1-methyl-1H-pyrazol-4-yl)cyclopropane-1-carboxamido)-2,7-naphthyridin-3-yl)-N,4-dimethylpicolinamide] |  | Ki (HPK1 [1]; [3]): 0.00244 µM
3 | Cc1ccc2c(c1-c1cc3cc(NC(=O)[C@H]4C[C@@H]4CC#N)ncc3c(N)n1)CC[C@@]2(C)O (single isomer, unassigned) [Compound 353] |  | Ki (HPK1 [1]; Table B1-2, read-out: HPK1 Ki, L = Lanth): 0.029 µM
4 | CCNC(=O)[C@H]1C[C@H]1C(=O)Nc1cc2cc(-c3cnccc3C)nc(N)c2cn1 (racemic) [Compound 137, (±)-(cis)-N1-(8-amino-6-(4-methylpyridin-3-yl)-2,7-naphthyridin-3-yl)-N2-ethylcyclopropane-1,2-dicarboxamide] |  | Ki (HPK1 [1]; [3]): 0.11 µM
5 | Cc1ccncc1-c1cc2cc(NC(=O)[C@@H]3C[C@H]3F)ncc2c(N)n1 (racemic) [Compound 51, (±)-trans-N-(8-amino-6-(4-methylpyridin-3-yl)-2,7-naphthyridin-3-yl)-2-fluorocyclopropanecarboxamide] |  | Ki (HPK1 [1]; [3]): 0.0013 µM
6 | Cc1ccncc1-c1cc2cc(NC(=O)[C@@H]3C[C@@H]3C(=O)N(C)C)ncc2c(N)n1 (racemic) [Compound 136, (±)-cis-N1-(8-amino-6-(4-methylpyridin-3-yl)-2,7-naphthyridin-3-yl)-N2,N2-dimethylcyclopropane-1,2-dicarboxamide] |  | Ki (HPK1 [1]; [3]): 0.13 µM
7 | N#C[C@@H]1C[C@@H]1C(=O)Nc1cc2cc(-c3cncc4[nH]ccc34)nc(N)c2cn1 (racemic) [Compound 21, (±)-cis-N-(8-amino-6-(1H-pyrrolo[2,3-c]pyridin-4-yl)-2,7-naphthyridin-3-yl)-2-cyanocyclopropanecarboxamide] |  | Ki (HPK1 [1]; [3]): 0.00276 µM
8 | Cc1ccncc1-c1cc2cc(NC(=O)[C@@H]3C[C@H]3CC#N)ncc2c(N)n1 (racemic) [Compound 212, (+/−)-trans-N-(8-amino-6-(4-methylpyridin-3-yl)-2,7-naphthyridin-3-yl)-2-(cyanomethyl)cyclopropanecarboxamide] |  | Ki (HPK1 [1]; [3]): 0.000685 µM
9 | Cc1ccncc1-c1cc2cc(NC(=O)C3C4CNCC43)ncc2c(N)n1 (stereo not drawn) [Compound 111, N-[8-amino-6-(4-methyl-3-pyridyl)-2,7-naphthyridin-3-yl]-3-azabicyclo[3.1.0]hexane-6-carboxamide] | 2.38 nM | 
10 | CCc1ccncc1-c1cc2cc(NC(=O)c3ccnn3C)ncc2c(N)n1 [Compound 72, 2-Methyl-2H-pyrazole-3-carboxylic acid [8-amino-6-(4-ethylpyridin-3-yl)-[2,7]naphthyridin-3-yl]amide] | 14.1 nM | 
11 | Cc1ccncc1-c1cc2cc(NC(=O)[C@H]3[C@@H]4CNC(=O)[C@@H]43)ncc2c(N)n1 [Compound 158, Exo-N-(8-amino-6-(4-methylpyridin-3-yl)-2,7-naphthyridin-3-yl)-2-oxo-3-azabicyclo[3.1.0]hexane-6-carboxamide] | 3.6 nM | 
12 | N#C[C@H]1C[C@@H]1C(=O)Nc1cc2cc(-c3cnccc3-c3cn[nH]c3)nc(N)c2cn1 [Compound 236, (1S,2S)—N-(6-(4-(1H-pyrazol-4-yl)pyridin-3-yl)-8-amino-2,7-naphthyridin-3-yl)-2-cyanocyclopropanecarboxamide] | 23.3 nM | 
13 | CCc1ncncc1-c1cc2cc(NC(=O)[C@@H]3C[C@@H]3F)ncc2c(N)n1 [Compound 13, (1S,2S)—N-(8-amino-6-(4-ethylpyrimidin-5-yl)-2,7-naphthyridin-3-yl)-2-fluorocyclopropanecarboxamide] | 15.6 nM | 
14 | Cc1ccncc1-c1cc2cc(NC(=O)[C@H]3[C@@H]4CN(S(C)(=O)=O)C[C@@H]43)ncc2c(N)n1 [Compound 151, exo-N-[8-amino-6-(4-methyl-3-pyridyl)-2,7-naphthyridin-3-yl]-3-methylsulfonyl-3-azabicyclo [3.1.0]hexane-6-carboxamide] | 15 nM | 
15 | CCc1ccncc1-c1cc2cc(NC(=O)N[C@@H]3CCN(C)C3=O)ncc2c(N)n1 [Compound 176, (R)-1-(8-amino-6-(4-ethylpyridin-3-yl)-2,7-naphthyridin-3-yl)-3-(1-methyl-2-oxopyrrolidin-3-yl)urea] | 5.5 nM | 
16 | CCc1ccncc1-c1cc2cc(NC(=O)NC(C)C)ncc2c(N)n1 [Compound 31, 1-[8-amino-6-(4-ethyl-3-pyridyl)-2,7-naphthyridin-3-yl]-3-isopropyl-urea] | 3.9 nM | 
17 | Cc1ccc(C(=O)N(C)C)cc1-c1cc2cc(NC(=O)[C@H]3C[C@@H]3c3cnn(C)c3)ncc2c(N)n1 [Compound 290, 3-(1-amino-6-[[(1S,2S)-2-(1-methyl-1H-pyrazol-4-yl)cyclopropane]amido]-2,7-naphthyridin-3-yl)-N,N,4-trimethylbenzamide] | 3.36 nM | 
18 | COCCN1CC(NC(=O)Nc2cc3cc(-c4cnccc4C)nc(N)c3cn2)C1 [Compound 174, 1-(8-amino-6-(4-methylpyridin-3-yl)-2,7-naphthyridin-3-yl)-3-(1-(2-methoxyethyl)azetidin-3-yl)urea] | 2.5 nM | 
19 | Cc1ccc(C(=O)N(C)C)cc1-c1cc2cc(NC(=O)[C@@H]3C[C@H]3c3cnn(C)c3)ncc2c(N)n1 [Compound 291, 3-(1-amino-6-[[(1R,2R)-2-(1-methyl-1H-pyrazol-4-yl)cyclopropane]amido]-2,7-naphthyridin-3-yl)-N,N,4-trimethylbenzamide] | 63.8 nM | 
20 | Cc1c(F)cncc1-c1cc2cc(NC(=O)[C@@H]3C[C@@H]3F)ncc2c(N)n1 [Compound 17, (1S,2S)—N-(8-amino-6-(5-fluoro-4-methylpyridin-3-yl)-2,7-naphthyridin-3-yl)-2-fluorocyclopropanecarboxamide] | 16.1 nM | 
21 | Cc1ccncc1-c1cc2cc(NC(=O)NC3CNC3)ncc2c(N)n1 [Compound 175, 1-(8-amino-6-(4-methylpyridin-3-yl)-2,7-naphthyridin-3-yl)-3-(azetidin-3-yl)urea] | 3.4 nM | 
22 | Cc1ccncc1-c1cc2cc(NC(=O)[C@@H]3[C@H](C)[C@H]3c3cnn(C)c3)ncc2c(N)n1 [Compound 329, (1R,2R,3R)—N-[8-amino-6-(4-methylpyridin-3-yl)-2,7-naphthyridin-3-yl]-2-methyl-3-(1-methyl-1H-pyrazol-4-yl)cyclopropane-1-carboxamide] | 2.65 nM | 

Continued by falling Ki (HPK1 [2]), values first:

Row | Ki (HPK1 [2]) | SMILES | other results
23 | 1.73 nM | COc1ccncc1-c1cc2cc(NC(=O)[C@@H]3C[C@@H]3F)ncc2c(N)n1 [Compound 10, (1S,2S)—N-(8-amino-6-(4-methoxypyridin-3-yl)-2,7-naphthyridin-3-yl)-2-fluorocyclopropanecarboxamide] | 
24 | 1.3 nM | CCc1ccncc1-c1cc2cc(Nc3ccn(C)n3)ncc2c(N)n1 [Compound 76, 3-(4-Ethylpyridin-3-yl)-N6-(1-methyl-1H-pyrazol-3-yl)-[2,7]naphthyridine-1,6-diamine] | 
25 | 1.2 nM | Cc1cc2c(cc1-c1cc3cc(NC(=O)[C@H]4C[C@@H]4C#N)ncc3c(N)n1)C(O)C(=O)N2 (relative stereo) [Compound 160, trans-N-[8-amino-6-(3-hydroxy-6-methyl-2-oxo-indolin-5-yl)-2,7-naphthyridin-3-yl]-2-cyano-cyclopropanecarboxamide] | 
26 | 0.793 nM | Cc1ccncc1-c1cc2cc(NC(=O)[C@@H]3C[C@@H]3F)ncc2c(N)n1 [Compound 6, (1S,2S)—N-(8-amino-6-(4-methylpyridin-3-yl)-2,7-naphthyridin-3-yl)-2-fluorocyclopropanecarboxamide] | 
27 | 0.569 nM | Cc1ccncc1-c1cc2cc(Nc3cnn([C@H]4CCCN(C)C4=O)c3)ncc2c(N)n1 [Compound 252, (3S)-3-(4-[[8-amino-6-(4-methylpyridin-3-yl)-2,7-naphthyridin-3-yl]amino]-1H-pyrazol-1-yl)-1-methylpiperidin-2-one] | 
28 | 0.512 nM | Cc1ccncc1-c1cc2cc(Nc3cnn([C@@H]4CCCN(C)C4=O)c3)ncc2c(N)n1 [Compound 251, (3R)-3-(4-[[8-amino-6-(4-methylpyridin-3-yl)-2,7-naphthyridin-3-yl]amino]-1H-pyrazol-1-yl)-1-methylpiperidin-2-one] | 
29 | 0.48 nM | Cc1ccncc1-c1cc2cc(NC(=O)[C@H]3C[C@@H]3C3CCOCC3)ncc2c(N)n1 [Compound 324, (1S,2R)—N-[8-amino-6-(4-methylpyridin-3-yl)-2,7-naphthyridin-3-yl]-2-(oxan-4-yl)cyclopropane-1-carboxamide] | 
30 | 0.4 nM | Cc1ccncc1-c1cc2cc(NC(=O)[C@H]3C[C@@H]3C#N)ncc2c(N)n1 [Compound 202, (1S,2S)—N-(8-amino-6-(4-methylpyridin-3-yl)-2,7-naphthyridin-3-yl)-2-cyanocyclopropane-1-carboxamide] | 
31 | 0.112 nM | Cn1cc([C@@H]2C[C@H]2C(=O)Nc2cc3cc(-c4c(F)cccc4F)nc(N)c3cn2)cn1 (stereo in doubt) [Compound 307, (1R,2R)—N-[8-amino-6-(2,6-difluorophenyl)-2,7-naphthyridin-3-yl]-2-(1-methyl-1H-pyrazol-4-yl)cyclopropane-1-carboxamide] | 
32 | 0.02 nM | Cc1ccncc1-c1nc(N)c2cnc(NC(=O)[C@H]3C[C@@H]3c3cn[nH]c3)cc2c1F [Compound 195, (1S,2S)—N-(8-amino-5-fluoro-6-(4-methylpyridin-3-yl)-2,7-naphthyridin-3-yl)-2-(1H-pyrazol-4-yl)cyclopropane-1-carboxamide] | 
33 | 0.02 nM | Cc1ccncc1-c1cc2cc(NC(=O)[C@H]3C[C@]34CCNC(=O)C4)ncc2c(N)n1 [Compound 313, (1S,3R)—N-[8-amino-6-(4-methylpyridin-3-yl)-2,7-naphthyridin-3-yl]-5-oxo-6-azaspiro[2.5]octane-1-carboxamide] | 
